Reference: patent publication US12509466B2, “Methods and compounds for treating paramyxoviridae virus infections” (Gilead Sciences, Inc., priority 2010, dated 2025)
Read-outs that look alike come from different tables or passages of the source.

Assays:
RSV strain A2 = assay: Anti-RSV cytoprotection assay in Hep2 cells; format: cell-based; conditions: human respiratory syncytial virus, HEp-2, 96 h
Protocol: Antiviral activity against RSV is determined using an in vitro cytoprotection assay in Hep2 cells. […] The method used is similar to methods previously described in published literature (Chapman et al., Antimicrob Agents Chemother. 2007, 51(9):3346-53.)
Hep2 cells are obtained from ATCC (Manassas, VI) and maintained in MEM media supplemented with 10% fetal bovine serum and penicillin/streptomycin. Cells are passaged twice a week and kept at subconfluent stage. Commercial stock of RSV strain A2 (Advanced Biotechnologies, Columbia, MD) is titered before compound testing to determine the appropriate dilution of the virus stock that generates desirable cytopathic effect in Hep2 cells.
For antiviral tests, Hep2 cells are seeded into 96-well plates 24 hours before the assay at a density of 3,000 cells/well. On a separate 96 well plate, compounds to be tested are serially diluted in cell culture media. Eight concentrations in 3-fold serial dilution increments are prepared for each tested compound and 100 uL/well of each dilution is transferred in duplicate onto plates with seeded Hep2 cells. Subsequently, appropriate dilution of virus stock previously determined by titration is prepared in cell culture media and 100 uL/well is added to test plates containing cells and serially diluted compounds. Each plate includes three wells of infected untreated cells and three wells of uninfected cells that served as 0% and 100% virus inhibition control, respectively. Following the infection with RSV, testing plates are incubated for 4 days in a tissue culture incubator. After the incubation, RSV-induced cytopathic effect is determined using a Cell TiterGlo reagent (Promega, Madison, WI) followed by a luminescence read-out. The percentage inhibition is calculated for each tested concentration relative to the 0% and 100% inhibition controls and the EC50 value for each compound is determined by non-linear regression as a concentration inhibiting the RSV-induced cytopathic effect by 50%. Ribavirin (purchased from Sigma, St. Louis, MO) is used as a positive control for antiviral activity.

[1] = Cytotoxicity in uninfected Hep2 cells; format: cell-based; conditions: human, CellTiter Glo
Protocol: Cytotoxicity of tested compounds is determined in uninfected Hep2 cells in parallel with the antiviral activity using the cell viability reagent in a similar fashion as described before for other cell types (Cihlar et al., Antimicrob Agents Chemother. 2008, 52(2):655-65.). The same protocol as for the determination of antiviral activity is used for the measurement of compound cytotoxicity except that the cells are not infected with RSV. Instead, fresh cell culture media (100 uL/well) without the virus is added to tested plates with cells and prediluted compounds. Cells are then incubated for 4 days followed by a cell viability test using CellTiter Glo reagent and a luminescence read-out. Untreated cell and cells treated with 50 ug/mL puromycin (Sigma, St. Louis, MO) are used as 100% and 0% cell viability control, respectively. The percent of cell viability is calculated for each tested compound concentration relative to the 0% and 100% controls and the CC50 value is determined by non-linear regression as a compound concentration reducing the cell viability by 50%.

[2] = system: Parainfluenza 3 strain C 243; assay: Parainfluenza cytoprotection assay in Vero cells; format: cell-based; conditions: 168 h, Parainfluenza 3 strain C 243, 7 days, MTS
Protocol: (§1) The Parainfluenza Cytoprotection assay uses Vero cells and Parainfluenza 3 strain C 243. Briefly virus and cells are mixed in the presence of test compound and incubated for 7 days. […] Therefore, antiviral effect or cytoprotection is observed when compounds prevent virus replication. Each assay plate contains cell control wells (cells only), virus control wells (cells plus virus), compound toxicity control wells (cells plus compound only), compound colorimetric control wells (compound only), as well as experimental wells (compound plus cells plus virus). Cytoprotection and compound cytotoxicity are assessed by MTS (CellTiter®96 Reagent, Promega, Madison WI) dye reduction. […]
The virus used for this assay is Parainfluenza 3 strain C 243. […] The virus is resuspended and diluted into tissue culture medium such that the amount of virus added to each well is the amount determined to give between 85 to 95% cell killing at 6-7 days post-infection.
(§2) At assay termination (7 days post-infection), the assay plates are stained with the soluble tetrazolium-based dye MTS (3-(4,5-dimethylthiazol-2-yl)-5-(3-carboxymethoxyphenyl)-2-(4-sulfophenyl)-2H-tetrazolium; CellTiter®96 Reagent, Promega) to determine cell viability and quantify compound toxicity. […]

[3] = Compound cytotoxicity in Vero cells (MTS); format: cell-based; conditions: African green monkey (Cercopithecus aethiops), concentration resulting in 50% cell death, read-out: TC50
Protocol: as §1
as §2, with “toxicity. MTS is metabolized by the mitochondrial enzymes of metabolically active cells to yield a soluble formazan product, allowing the rapid quantitative analysis of cell viability and compound cytotoxicity.” for “toxicity.”

[4] = molecular target: T1, RSV ribonucleoprotein (RNP) complexes (Human respiratory syncytial virus A, UniProt P28887); assay: RSV RNP transcription assay; format: biochemical, RSV A2; conditions: reduction of total radiolabled transcripts by 50%, 90 minute incubation at 30° C.
T1 construct: The supernatant (S3) fraction, containing the enriched RSV RNP complexes, was collected; endogenous in cells; host or cells: HEp-2 cells infected with RSV A2; crude detergent-extracted S3 fraction
Protocol: HEp-2 cells were plated at a density of 7.1×10^4 cells/cm^2 in MEM+10% fetal bovine serum (FBS) and allowed to attach overnight at 37° C. (5% CO2). Following attachment, the cells were infected with RSV A2 (MOI=5) in 35 mL MEM+2% FBS. At 20 hours post-infection, the media was replaced with MEM+2% FBS supplemented with 2 μg/mL actinomycin D and returned to 37° C. for one hour. The cells were then washed once with PBS and treated with 35 mL of PBS+250 μg/mL lyso-lecithin for one minute, after which all liquid was aspirated. The cells were harvested by scrapping them into 1.2 mL of buffer A [50 mM TRIS acetate (pH 8.0), 100 mM potassium acetate, 1 mM DTT and 2 μg/mL actinomycin D] and lysed by repeated passage through an 18 gauge needle (10 times). The cell lysate was placed in ice for 10 minutes and then centrifuged at 2400 g for 10 minutes at 4° C. The supernatant (S1) was removed and the pellet (P1) was disrupted in 600 uL of Buffer B [10 mM TRIS acetate (pH 8.0), 10 mM potassium acetate and 1.5 mM MgCl2] supplemented with 1% Triton X-100 by repeated passage through an 18 gauge needle (10 times). The resuspended pellet was placed in ice for 10 minutes and then centrifuged at 2400 g for 10 minutes at 4° C. The supernatant (S2) was removed and the pellet (P2) was disrupted in 600 uL of Buffer B supplemented with 0.5% deoxycholate and 0.1% Tween 40. The resuspended pellet was placed in ice for 10 minutes and then centrifuged at 2400 g for 10 minutes at 4° C. The supernatant (S3) fraction, containing the enriched RSV RNP complexes, was collected and the protein concentration determined by UV absorbance at 280 nm. Aliquoted RSV RNP S3 fractions were stored at −80° C.
Transcription reactions contained 25 μg of crude RSV RNP complexes in 30 μL of reaction buffer [50 mM TRIS-acetate (pH 8.0), 120 mM potassium acetate, 5% glycerol, 4.5 mM MgCl2, 3 mM DTT, 2 mM ethyleneglycol-bis(2-aminoethylether)-tetraacetic acid (EGTA), 50 μg/mL BSA, 2.5 U RNasin (Promega), ATP, GTP, UTP, CTP and 1.5 uCi [α-^32P] NTP (3000 Ci/mmol)]. The radiolabled nucleotide used in the transcription assay was selected to match the nucleotide analog being evaluated for inhibition of RSV RNP transcription. […] The three remaining nucleotides were added at a final concentration of 100 μM.
To determine whether nucleotide analogs inhibited RSV RNP transcription, compounds were added using a 6 step serial dilution in 5-fold increments. Following a 90 minute incubation at 30° C., the RNP reactions were stopped with 350 μL of Qiagen RLT lysis buffer and the RNA was purified using a Qiagen RNeasy 96 kit. Purified RNA was denatured in RNA sample loading buffer (Sigma) at 65° C. for 10 minutes and run on a 1.2% agarose/MOPS gel containing 2M formaldehyde. […]

[5] = RSV-induced cytopathic effect, Hep2 cells, RSV strain A2, 4 days, Cell TiterGlo, read-out: EC50

T1 sequence (P28887 whole entry, looked up, one chain of several): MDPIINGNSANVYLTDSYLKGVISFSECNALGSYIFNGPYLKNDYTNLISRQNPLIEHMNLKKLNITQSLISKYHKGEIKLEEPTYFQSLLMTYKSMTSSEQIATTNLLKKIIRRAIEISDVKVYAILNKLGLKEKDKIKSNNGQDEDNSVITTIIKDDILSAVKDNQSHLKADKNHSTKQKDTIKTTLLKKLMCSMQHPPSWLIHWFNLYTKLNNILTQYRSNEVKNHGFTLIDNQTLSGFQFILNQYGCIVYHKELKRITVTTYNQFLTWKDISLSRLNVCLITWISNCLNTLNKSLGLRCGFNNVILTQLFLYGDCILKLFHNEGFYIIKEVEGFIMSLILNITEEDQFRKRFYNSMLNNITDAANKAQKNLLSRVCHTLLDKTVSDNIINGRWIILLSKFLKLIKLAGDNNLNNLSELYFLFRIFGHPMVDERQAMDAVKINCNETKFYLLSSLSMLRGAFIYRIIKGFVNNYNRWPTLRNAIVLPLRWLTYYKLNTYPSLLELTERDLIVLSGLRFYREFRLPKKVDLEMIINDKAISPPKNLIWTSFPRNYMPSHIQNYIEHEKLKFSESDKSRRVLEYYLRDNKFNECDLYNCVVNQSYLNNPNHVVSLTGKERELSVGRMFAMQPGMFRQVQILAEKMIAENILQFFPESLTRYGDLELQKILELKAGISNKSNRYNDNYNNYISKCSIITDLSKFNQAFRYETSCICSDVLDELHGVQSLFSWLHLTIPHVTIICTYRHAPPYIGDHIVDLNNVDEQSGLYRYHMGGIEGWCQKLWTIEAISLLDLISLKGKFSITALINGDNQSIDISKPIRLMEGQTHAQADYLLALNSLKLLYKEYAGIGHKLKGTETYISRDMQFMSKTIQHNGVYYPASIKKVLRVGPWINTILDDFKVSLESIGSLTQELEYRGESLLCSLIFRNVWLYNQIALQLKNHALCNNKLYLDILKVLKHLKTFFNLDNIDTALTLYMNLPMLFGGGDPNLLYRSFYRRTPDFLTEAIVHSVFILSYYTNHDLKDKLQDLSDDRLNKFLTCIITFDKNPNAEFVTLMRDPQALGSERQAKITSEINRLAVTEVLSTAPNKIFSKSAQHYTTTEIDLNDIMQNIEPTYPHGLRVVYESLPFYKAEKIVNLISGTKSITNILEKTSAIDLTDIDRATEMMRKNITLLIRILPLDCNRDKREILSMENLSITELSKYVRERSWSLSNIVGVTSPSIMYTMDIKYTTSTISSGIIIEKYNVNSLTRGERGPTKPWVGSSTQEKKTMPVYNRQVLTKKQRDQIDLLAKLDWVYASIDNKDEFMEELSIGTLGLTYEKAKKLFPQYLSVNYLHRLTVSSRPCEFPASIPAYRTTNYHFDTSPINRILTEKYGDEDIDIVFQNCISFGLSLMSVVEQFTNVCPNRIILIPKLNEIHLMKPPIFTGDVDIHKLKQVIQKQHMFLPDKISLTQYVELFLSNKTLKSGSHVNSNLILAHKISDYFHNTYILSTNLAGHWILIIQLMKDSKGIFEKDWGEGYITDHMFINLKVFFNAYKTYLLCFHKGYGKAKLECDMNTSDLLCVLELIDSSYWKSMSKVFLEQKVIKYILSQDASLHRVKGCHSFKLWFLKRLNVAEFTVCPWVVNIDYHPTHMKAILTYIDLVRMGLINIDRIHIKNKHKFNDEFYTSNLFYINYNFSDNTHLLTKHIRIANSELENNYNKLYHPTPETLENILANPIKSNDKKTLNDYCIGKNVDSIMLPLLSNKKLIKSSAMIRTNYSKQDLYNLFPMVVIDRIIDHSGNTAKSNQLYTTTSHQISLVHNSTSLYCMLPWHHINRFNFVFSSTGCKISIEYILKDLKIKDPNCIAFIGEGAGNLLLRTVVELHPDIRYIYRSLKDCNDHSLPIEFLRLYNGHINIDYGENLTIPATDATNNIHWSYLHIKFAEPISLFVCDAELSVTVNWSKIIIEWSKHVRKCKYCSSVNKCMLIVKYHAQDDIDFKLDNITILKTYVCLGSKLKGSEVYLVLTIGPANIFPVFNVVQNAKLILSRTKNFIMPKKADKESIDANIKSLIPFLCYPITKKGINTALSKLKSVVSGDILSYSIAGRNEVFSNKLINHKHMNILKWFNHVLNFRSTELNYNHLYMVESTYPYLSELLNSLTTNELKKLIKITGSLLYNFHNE

EC50 (RSV strain A2; [5])	SMILES	CC50 at 4 days [1]	IC50 [4]	further results
0.48 µM	N#C[C@@]1(c2ccc3c(N)ncnn23)O[C@H](CO)[C@@H](O)[C@H]1O [Compound 1, (2R, 3R, 4S, 5R)-2-(4-aminopyrrolo[1,2-f][1,2,4]triazin-7-yl)-3,4-dihydroxy (hydroxymethyl)tetrahydrofuran-2-carbonitrile]	> 100 µM	–	IC50 [2]: 1.71 µM; CC50 at 7 days [3]: > 30 µM
–	C[C@@]1(c2ccc3c(N)ncnn23)O[C@H](COP(=O)(O)OP(=O)(O)OP(=O)(O)O)[C@@H](O)[C@H]1F [Compound 6, ((2R, 3R, 4R, 5S)-5-(4-aminopyrrolo[1,2-f][1,2,4]triazin-7-yl)-4-fluoro-3-hydroxy-5-methyltetrahydrofuran-2-yl)methyl Tetrahydrogen Triphosphate]	–	3.6 µM	–
–	CCOC(=O)[C@H](C)NP(=O)(OC[C@H]1O[C@@](C#N)(c2ccc3c(N)ncnn23)[C@H](O)[C@@H]1O)Oc1ccccc1 (stereo partly drawn) [Compound 10, (2S)-ethyl 2-((((2R,3S,4R,5R)-5-(4-aminopyrrolo[1,2-f][1,2,4]triazin-7-yl)cyano-3,4-dihydroxytetrahydrofuranyl)methoxy)(phenoxy)phosphorylamino)propanoate]	47 µM	–	EC50 (RSV strain A2): 0.18 µM
6.5 µM	CCOC(=O)[C@H](C)NP(=O)(N[C@@H](C)C(=O)OCC)OC[C@H]1O[C@@](C#N)(c2ccc3c(N)ncnn23)[C@H](O)[C@@H]1O [Compound 12, (2S,2'S)-diethyl 2,2′-((((2R,3S,4R,5R)-5-(4-aminopyrrolo[1,2-f][1,2,4]triazinyl)-5-cyano-3,4-dihydroxytetrahydrofuranyl)methoxy)phosphoryl)bis(azanediyl)dipropanoate]	> 100 µM	–	–
34 µM	C#C[C@@]1(c2ccc3c(N)ncnn23)O[C@H](CO)[C@@H](O)[C@H]1O [Compound 13, (2S,3R,4S,5R)-2-(4-aminopyrrolo[1,2-f][1,2,4]triazin-7-yl)-2-ethynyl (hydroxymethyl)tetrahydrofuran-3,4-diol]	> 100 µM	–	–
2.7 µM	C[C@@]1(c2ccc3c(N)ncnn23)O[C@H](CO)[C@@H](O)[C@H]1O [Compound 14]	92 µM	–	IC50 [2]: 5.23 µM; CC50 at 7 days [3]: > 30 µM
0.15 µM	CC(C)(C)C(=O)SCCOP(=O)(OCCSC(=O)C(C)(C)C)OC[C@H]1O[C@@](C#N)(c2ccc3c(N)ncnn23)[C@H](O)[C@@H]1O [Compound 15, S,S′-2,2′-((((2R,3S,4R,5R)-5-(4-aminopyrrolo[1,2-f][1,2,4]triazin-7-yl)-5-cyano-3,4-dihydroxytetrahydrofuran-2-yl)methoxy)phosphoryl)bis(oxy)bis(ethane-2,1-diyl) bis(2,2-dimethylpropanethioate)]	> 100 µM	–	–
–	C#C[C@@]1(c2ccc3c(N)ncnn23)O[C@H](COP(=O)(OCCSC(=O)C(C)(C)C)OCCSC(=O)C(C)(C)C)[C@@H](O)[C@H]1O [Compound 16, S,S′-2,2′-((((2R, 3S, 4R, 5S)-5-(4-aminopyrrolo[1,2-f][1,2,4]triazin-7-yl)-5-ethynyl-3,4-dihydroxytetrahydrofuran-2-yl)methoxy)phosphoryl)bis(oxy)bis(ethane-2,1-diyl) bis(2,2-dimethylpropanethioate)]	> 100 µM	–	EC50 (RSV strain A2): 3.3 µM
–	C#C[C@@]1(c2ccc3c(N)ncnn23)O[C@H](COP(=O)(O)OP(=O)(O)OP(=O)(O)O)[C@@H](O)[C@H]1O [Compound 18, ((2R, 3S, 4R, 5S)-5-(4-aminopyrrolo[1,2-f][1,2,4]triazin-7-yl)-5-ethynyl-3,4-dihydroxytetrahydrofuran-2-yl)methyl tetrahydrogen triphosphate]	–	1.6 µM	–
–	C[C@@]1(c2ccc3c(N)ncnn23)O[C@H](COP(=O)(O)OP(=O)(O)OP(=O)(O)O)[C@@H](O)[C@H]1O [Compound 19, ((2R, 3S, 4R, 5S)-5-(4-aminopyrrolo[1,2-f][1,2,4]triazin-7-yl)-3,4-dihydroxymethyltetrahydrofuran-2-yl)methyl Tetrahydrogen Triphosphate]	–	1.5 µM	–
–	N#C[C@@]1(c2ccc3c(N)ncnn23)O[C@H](COP(=O)(O)OP(=O)(O)OP(=O)(O)O)[C@@H](O)[C@H]1F [Compound 20, ((2R,3R,4R,5R)-5-(4-aminopyrrolo[1,2-f][1,2,4]triazin-7-yl)-5-cyano-4-fluoro-3-hydroxytetrahydrofuran-2-yl)methyl Tetrahydrogen Triphosphate]	–	0.8 µM	–
